# Paper PMC9216541, “Design and synthesis of Nrf2-derived hydrocarbon stapled peptides for the disruption of protein-DNA-interactions” (PLoS ONE, 2022)
# Where a SMILES comes first, the peptide text is derived from it. Bridges are numbered along the chain shown (N, C = ends). [ ]: non-standard residue; d: D form. The star is where a group is joined. FITC = O=C1OC2(c3ccc(O)cc3Oc3cc(O)ccc32)c2ccc(NC(=S)*)cc21; R8 = C=CCCCCCC[C@@](C)(N)C(=O)O; R5 = C=CCCC[C@@](C)(N)C(=O)O; S5 = C=CCCC[C@](C)(N)C(=O)O; GABA = NCCCC(=O)O
# Assays:
# living HeLa cells = assay: Cell permeability in living HeLa cells, fluorescence microscopy; type: cell-based
# Procedure: (§1) HeLa cells (ATCC CCL-2) were cultured in Dulbecco’s Modified Eagle Medium (DMEM) supplemented with 10% FBS (Pan Biotech), 2 mM L-glutamine, 100 U/ml penicillin and 100 μg/ml streptomycin at 37°C and 5% CO2.
# To investigate the cell permeability of peptide 4, living HeLa cells were washed twice and incubated for 5 min with DPBS + Mg/Ca, ([…]) in a CO2 incubator. Cells were subsequently incubated in the presence of 10 μM of peptide 4 in DPBS + Mg/Cl for 5 min, followed by two washes with DPBS + Mg/Cl and final addition of HEPES-buffered imaging medium containing 0.5 μM propidium iodide.
# (§2) Imaging was performed using an Olympus IX81 microscope with 20x and 60x UPLSAPO objectives and standard fluorescence filter sets.
# [1] = CD measurements, helical fraction from ellipticity at 222 nm; type: physicochemical; details: peptide 20 μM in water, calculated from [θ]obs at 222 nm by established methods (ref 30)
# Procedure: CD measurements were carried out on a JASCO J-715 spectrometer using water as the solvent for all measurements. The peptides were solved in water to a concentration of 20 μM. The linear peptide 5 was used as a control compound. The helical fraction for peptides 1–5 was calculated from the observed ellipticity [θ]obs at 222 nm using established methods.
# [2] = target: 6FAM-labeled MARE23 sequence (Nrf2:sMaf binding dsDNA); assay: Fluorescence polarization assay with 6FAM-labeled MARE23 dsDNA; details: FP, 10 nM 6FAM-MARE23 dsDNA, peptide 25 μM - 6.1 nM, 50 mM Tris/HCl pH 7.5, 100 mM NaCl, 60 min at room temperature; quadruplicates, three independent replicates, four parameter logistic fit
# Procedure: For DNA hybridization, equimolar amounts of fluorescein- or 6FAM-labeled sense and unlabeled antisense oligonucleotides were mixed in 1X annealing buffer (10 mM Tris pH 7.5, 100 mM NaCl, 1 mM EDTA) to yield a final concentration of 20 μM of dsDNA. Subsequently, mixtures were heated to 95°C for 10 min followed by cooling to 20°C at a rate of 1°C per minute. Afterwards, dsDNA probes were diluted to 10 nm in FP assay buffer (50 mM Tris/HCl pH 7.5, 100 mM NaCl, 2 mM MgCl2, 0.5 mM EDTA, 10 μg/mL BSA, 0.1 mM DTT, 0.01% Tween-20) and mixed with serial dilutions of peptides 1–6 (25 μM—6.1 nm), that were generated with the Echo 520 liquid handler (Labcyte Inc.), in a total volume of 10.2 μL per well in black 384-well small volume microplates (Greiner Bio-One). The microplates were shaken at 1500 rpm for 30 s, centrifuged at 200 x g for 60 s and subsequently incubated for 60 min in a humidified, dark chamber at room temperature. Finally, the fluorescence polarization was analyzed on an Infinite® M1000 microplate reader (Tecan) using the appropriate settings for fluorescein/6FAM, i.e. an excitation wavelength of 470 ± 2.5 nm and an emission wavelength of 520 ± 7.5 nm.
# Each concentration was analyzed in quadruplicates and resulting mean fluorescence polarization and standard deviation was fit to a four parameter logistic model with Origin (OriginLab, Northampton, MA) using the following equation: y=A1−A2/1+x/x0^p+A2
# Each experiment was performed in three independent replicates.
# Figure S5. Fluorescence polarization binding studies of stapled peptides 1-6 towards target DNA sequence MARE23 (5’-[6FAM][…]-3’ and 5’-[…]-3’) (A, C) and control DNA sequence MARE23_scrambled (5’-[6FAM][…]-3’ and 5’-GAGTAA-TAGCTATGACGATATTCCG-3’) (B and D, respectively). The obtained polarization values were either baseline-corrected (A, B) or corrected for the changes in fluorescence intensity in the free/bound state of the fluorescently labeled dsDNA probes (C, D).^[1] The resulting dissociation constants are listed in the inset tables in the respective panels. […]
# [3] = test system: dsDNA probe (MARE23, MARE23_scrambled, randomized sequence); assay: Electrophoretic mobility shift assay; type: binding; details: 1 pmol dsDNA probe with excess of peptide, 30 min at room temperature, native 15% TBE polyacrylamide gel
# Procedure: DNA hybridization was performed as described above. Afterwards, 1 pmol of the dsDNA probe was incubated with the respective excess of peptide in 1X assay buffer (10 mM Tris pH 7.5, 100 mM KCl, 2 mM MgCl2, 0.5 mM EDTA, 10 μg/mL BSA, 0.1 mM DTT, 2.5% glycerol) in a final volume of 10 μL and incubated for 30 min at room temperature. Prior to gel electrophoresis, samples were mixed with 2 μL of 6X loading buffer (60 mM Tris pH 7.5, 15% Ficoll 400) and the reaction mixtures were then loaded onto hand-cast, native 15% TBE polyacrylamide gels. Separation was performed for 45 min at a current of 20 mA per gel in a cold room at 4°C and the gels were analyzed on a Typhoon FLA 9500 laser scanner (GE Healthcare) using the 473 nm laser for excitation and a 510 nm long-pass filter (LPB (510LP)) for emission of fluorescein and FAM, respectively.
# [picture] Figure S6. Electrophoretic mobility shift assays of peptides 4 and 5 with MARE23 (5’-[6FAM][…]-3’ and 5’-[…]-TTCCG-3’).
# Figure S7. Electrophoretic mobility shift assays of peptides 4 and 5 with MARE23_scrambled (5’-[6FAM][…]-3’ and 5’-[…]-TTCCG-3’).
# Figure S8. Electrophoretic mobility shift assays of peptides 4 and 5 with DNA with a randomized sequence (5’-[6FAM][…]-3’ and 5’-GAG-[…]-3’).
# [4] = target: peptide 3 (stapled Nrf2-derived) (UniProt Q16236); assay: fluorescence polarization; details: FP: 50 mM Tris/HCl pH 7.5, 100 mM NaCl, 2 mM MgCl2, 0.5 mM EDTA, 10 ug/mL BSA, 0.1 mM DTT, 0.01% Tween-20, 10 nM DNA, 60 min RT; EMSA: 10 mM Tris pH 7.5, 100 mM
# [5] = target: peptide 5 (linear Nrf2-derived) (UniProt Q16236); assay: fluorescence polarization; details: FP: 50 mM Tris/HCl pH 7.5, 100 mM NaCl, 2 mM MgCl2, 0.5 mM EDTA, 10 ug/mL BSA, 0.1 mM DTT, 0.01% Tween-20, 10 nM DNA, 60 min RT; EMSA: 10 mM Tris pH 7.5, 100 mM
# [6] = target: peptide 2 (stapled Nrf2-derived) (UniProt Q16236); assay: fluorescence polarization; details: FP: 50 mM Tris/HCl pH 7.5, 100 mM NaCl, 2 mM MgCl2, 0.5 mM EDTA, 10 ug/mL BSA, 0.1 mM DTT, 0.01% Tween-20, 10 nM DNA, 60 min RT; EMSA: 10 mM Tris pH 7.5, 100 mM
# peptide 6 (scrambled) = assay: fluorescence polarization; details: FP: 50 mM Tris/HCl pH 7.5, 100 mM NaCl, 2 mM MgCl2, 0.5 mM EDTA, 10 ug/mL BSA, 0.1 mM DTT, 0.01% Tween-20, 10 nM DNA, 60 min RT; EMSA: 10 mM Tris pH 7.5, 100 mM
# [7] = target: peptide 4 (stapled Nrf2-derived) (UniProt Q16236); assay: fluorescence polarization; details: FP: 50 mM Tris/HCl pH 7.5, 100 mM NaCl, 2 mM MgCl2, 0.5 mM EDTA, 10 ug/mL BSA, 0.1 mM DTT, 0.01% Tween-20, 10 nM DNA, 60 min RT; EMSA: 10 mM Tris pH 7.5, 100 mM
# [8] = target: peptide 1 (stapled Nrf2-derived) (UniProt Q16236); assay: fluorescence polarization; details: FP: 50 mM Tris/HCl pH 7.5, 100 mM NaCl, 2 mM MgCl2, 0.5 mM EDTA, 10 ug/mL BSA, 0.1 mM DTT, 0.01% Tween-20, 10 nM DNA, 60 min RT; EMSA: 10 mM Tris pH 7.5, 100 mM
# [9] = test system: cellular DNA in fixed, permeabilized HeLa cells; assay: Incubation with fixed, permeabilized HeLa cells, wide-field fluorescence microscopy; type: cell-based; details: FITC-labeled peptide
# Procedure: as §1
# For fixing and permeabilization, HeLa cells were incubated with pre-warmed 4% formaldehyde for 20 min at 37°C, followed by permeabilization with 0.25% Triton-X 100 for 20 min at room temperature. For the evaluation of the effect of proteases, cOmplete protease inhibitor mix (1X) 500 μl was added to the fixed cells for 30 min. Peptides were incubated at 1 μM for 3 h in the presence of the protease inhibitor mix, followed by 3 min incubation with 1 μM of the nucleic acid marker DAPI, then extensively washed with DPBS and subjected to wide-field imaging.
# as §2
compound,measurement,setting,value
CC[C@H](C)[C@H](NC(=O)CCCNC(=S)Nc1ccc2c(c1)C(=O)OC21c2ccc(O)cc2Oc2cc(O)ccc21)C(=O)N[C@@H](CCCNC(=N)N)C(=O)N[C@@H](CCCNC(=N)N)C(=O)N[C@@H](CCCNC(=N)N)C(=O)N[C@]1(C)CCCCCCC=CCCC[C@@](C)(C(=O)N[C@@H](CC(N)=O)C(=O)N[C@@H](CS)C(=O)N[C@@H](CCCNC(=N)N)C(=O)N[C@@H](CCCCN)C(=O)N[C@@H](CCCNC(=N)N)C(=O)N[C@@H](CCCCN)C(N)=O)NC(=O)[C@H](C)NC(=O)[C@H](C)NC(=O)[C@H](C(C)C)NC(=O)[C@H](CCCCN)NC(=O)[C@H](CC(N)=O)NC(=O)[C@H](CCCCN)NC1=O [FITC-4] ({FITC-GABA}-IRRR[R8]KNKVAA[S5]NCRKRK-NH2; staple 5-12),membrane permeability in living cells,"living HeLa cells; 10 μM peptide in DPBS + Mg/Ca, 5 min, serum-free, washed, FITC fluorescence microscopy",high membrane permeability in living cells
same,viability / membrane integrity of peptide-containing cells (propidium iodide),"living HeLa cells; 10 μM peptide, 0.5 μM propidium iodide in imaging medium",majority of peptide-containing cells were alive
CC[C@H](C)[C@H](NC(C)=O)C(=O)N[C@@H](CCCNC(=N)N)C(=O)N[C@@H](CCCNC(=N)N)C(=O)N[C@@H](CCCNC(=N)N)C(=O)NCC(=O)N[C@@H](CCCCN)C(=O)N[C@@H](CC(N)=O)C(=O)N[C@@H](CCCCN)C(=O)N[C@]1(C)CCCC=CCCC[C@@](C)(C(=O)N[C@@H](CC(N)=O)C(=O)N[C@@H](CS)C(=O)N[C@@H](CCCNC(=N)N)C(=O)N[C@@H](CCCCN)C(=O)N[C@@H](CCCNC(=N)N)C(=O)N[C@@H](CCCCN)C(N)=O)NC(=O)[C@H](C)NC(=O)[C@H](C)NC1=O [compound 3] (Ac-IRRRGKNK[R5]AA[S5]NCRKRK-NH2; staple 9-12),Helicity (calculated) / α-helical content,[1],36%
same,Kd,[2],1500 ± 200 nM
CC[C@H](C)[C@H](NC(C)=O)C(=O)N[C@@H](CCCNC(=N)N)C(=O)N[C@@H](CCCNC(=N)N)C(=O)N[C@@H](CCCNC(=N)N)C(=O)N[C@]1(C)CCCCCCC=CCCC[C@@](C)(C(=O)N[C@@H](CC(N)=O)C(=O)N[C@@H](CS)C(=O)N[C@@H](CCCNC(=N)N)C(=O)N[C@@H](CCCCN)C(=O)N[C@@H](CCCNC(=N)N)C(=O)N[C@@H](CCCCN)C(N)=O)NC(=O)[C@H](C)NC(=O)[C@H](C)NC(=O)[C@H](C(C)C)NC(=O)[C@H](CCCCN)NC(=O)[C@H](CC(N)=O)NC(=O)[C@H](CCCCN)NC1=O [compound 4] (Ac-IRRR[R8]KNKVAA[S5]NCRKRK-NH2; staple 5-12),Helicity (calculated) / α-helical content,[1],18%
same,Kd,[2],1200 ± 300 nM
same,mobility shift of DNA,[3],induce a mobility shift of DNA at a lower concentration than the unstapled peptide 5
CGGAATCAATGACTCATTGTTACTC (double strand) [MARE23],Kd,[4],1500 nM
same,Kd,[5],7900 nM
same,Kd,[6],3900 nM
same,Kd,peptide 6 (scrambled),8100 nM
same,Kd,[7],1200 nM
same,Kd,[8],1600 nM
"IRRRGKNKVAAQNCRKRK [FITC-5, linear peptide 5 with N-terminal FITC-GABA- label]",enrichment in the nucleus,"[9]; fixed (4% formaldehyde) and permeabilized (0.25% Triton-X 100) HeLa cells, DAPI co-stain",no enrichment in the nucleus could be observed
same,amount of peptide detectable in cells,"[9]; fixed and permeabilized HeLa cells, identical exposure times",only small amounts
"IRRRS5KNKS5AAQNCRKRK (sidechain bridge or staple) [compound 1, Nrf2-derived i,i+4 hydrocarbon stapled peptide (505/509), N-terminally acetylated, C-terminal amide]",Helicity (calculated) / α-helical content,[1],20%
same,Kd,[2],1600 ± 40 nM
